Reference: US7824872B2, “Pharmaceutical agents” (Theravalues Corporation, priority 2003, dated 2010)
Where two headings read alike, the source gives them in different places. Where a SMILES comes first, the peptide text is derived from it. [ ]: non-standard residue; d: D form. Nle = CCCC[C@H](N)C(=O)O

Assays:
Type in all cases: cell-based
Pim-1 = assay: Western blotting of Pim-1 in cells cultured with a proteasome inhibitor; settings: PCI-43 cells, normoxia, 50 μM ALLN, 6 and 12 hours
Experimental: The cells used were HCT116 (colon cancer cell line), HePG2 (liver cancer cell line), KMP-4 (pancreatic cancer cell line), PCI-10 (pancreatic cancer cell line), PCI-35 (pancreatic cancer cell line), and PCI-43 (pancreatic cancer cell line). Each type of cell was cultured for 16 hours under hypoxia (1% oxygen, 5% carbondioxide), or normoxia (20% oxygen, 5% carbondioxide). RNA was extracted from the cultured cells using Trizol reagent, and proteins were extracted from the cultured cells using 1% NP-40 lysis buffer ([…] pH7.5, […], 2 μM EDTA, 1 μM EGTA, 50 μM NaF, 1 μM Na3VO4, 1 mM PMSF).
Proteins were detected by Western blotting. More specifically, the above-mentioned samples were electrophoresed through 12% polyacrylamide gels, and then blotted onto nitrocellulose membranes. The membranes were blocked with blocking buffer (5% skim milk, in physiological Tween-phosphate buffer), reacted with anti-Pim-1 antibody for one hour, then incubated with peroxidase-conjugated goat anti-mouse IgG secondary antibody, and detected using an ECL detection kit (Amersham).
Whether or not Pim-1 is degraded by proteases under normoxia was investigated. PCI-43 cells were cultured under hypoxia and normoxia. Cells cultured under hypoxia were sampled before culturing, and after culturing for 4, 12, and 24 hours. […]

PCI-43 cells [1] = assay: Number of live cells after 48 hours of treatment with anticancer agents (IC50); settings: concentration halving the number of live cells
Experimental: (§1) The sensitivity of solid cancer cells to anticancer agents under low and normal oxygen partial pressures was investigated. Three types of solid pancreatic cancer cell lines (PCI-35 cells, KMP-4 cells, and PCI-43 cells) were used as the cells. For each type of cell, 2×10^3 cells were cultured for six hours in the presence of 50 μg/mL of cisplatin under low oxygen partial pressure (1% oxygen, 5% carbondioxide; hereinafter, the same values in the Examples) or normal oxygen partial pressure (20% oxygen, 5% carbondioxide; hereinafter, the same values in the Examples). After culturing, the cells were washed twice with physiological phosphate buffer (pH7.4) to prepare samples. Dulbecco's Modified Eagle's Medium/F12 was used as the medium for culturing (hereinafter, unless particularly specified, use of the same medium is assumed).
Using gemcitabine, adriamycin, and cisplatin, and using PCI-43 cells, measurements were made as in Example 1. The concentrations of gemcitabine and adriamycin were 0.1 to 1 μmol and 0.1 to 5 μmol, respectively. IC50 values were calculated from the measured results, as shown below.
The number of live cells was determined after 48 hours of treatment with various concentrations of anticancer agents, and the concentrations of anticancer agents needed to half the number of live cells present when the various anticancer agents were not added were defined as IC50 values.

PCI-43 cells [2] = assay: FACS analysis of apoptosis (PI / anti-anexin V staining) under hypoxia and normoxia; settings: 50 μg/mL cisplatin, 12 and 24 hours
Experimental: as §1
(§2) The cells described above were stained with propidium iodide (PI) and FITC-conjugated anti-anexin V, and FACS analysis was performed using FACS calibur (Becton Dickinson).
In FIG. 1, “Normoxia” means under normal oxygen partial pressure, and “Hypoxia” means under low oxygen partial pressure (the same hereinafter). […]
PCI-43 cells were cultured for up to 24 hours under the same conditions as in Example 1. Samples obtained before culturing, and after culturing for 12 hours and 24 hours were analyzed as in Example 1. […]

[3] = system: PCI-35 cells, KMP-4 cells, and PCI-43 cells; assay: FACS analysis of apoptosis (PI / anti-anexin V staining) under hypoxia and normoxia, three pancreatic cancer cell lines; settings: 50 μg/mL cisplatin, six hours, PCI-35, KMP-4 and PCI-43 cells
Experimental: as §1, §2
In FIG. 1, “Normoxia” means under normal oxygen partial pressure, and “Hypoxia” means under low oxygen partial pressure (the same hereinafter). The FACS analyses in the Examples can be described as staining of cells with PI and anti-anexin V, and sorting of cells based on the intensity of staining to show distributions such as those in FIG. 1. […]

[4] = hypoxia (1% oxygen, 5% carbondioxide), read-out: IC50 (μM), Hypoxia
[5] = normoxia (20% oxygen, 5% carbondioxide), read-out: IC50 (μM), Normoxia

Structure (SMILES): CCCC[C@@H](C=O)NC(=O)[C@H](CC(C)C)NC(=O)[C@H](CC(C)C)NC(C)=O [ALLN, N-acetyl-L-leucinyl-L-leucinyl-L-norleucinal] (Ac-Leu-Leu-[Nle]-aldehyde)
- amount of Pim-1 (Western blotting) (Pim-1): the amount of Pim-1 also increased with time under normoxia

Structure (SMILES): COc1cccc2c1C(=O)c1c(O)c3c(c(O)c1C2=O)C[C@@](O)(C(=O)CO)C[C@@H]3O[C@H]1C[C@H](N)[C@H](O)[C@H](C)O1 [Adriamycin, adriamycin]
- IC50 (PCI-43 cells [1]; [4]): 1.9 µM
- IC50 (PCI-43 cells [1]; [5]): 0.3 µM

Structure (SMILES): N.N.[Cl][Pt][Cl] [Cisplatin, cisplatin]
- proportion of apoptotic cells under hypoxia compared with normoxia (PCI-43 cells [2]): approximately half that under normoxia
- IC50 (PCI-43 cells [1]; [4]): 27.7 µM
- IC50 (PCI-43 cells [1]; [5]): 18.6 µM
- induction of apoptosis under normoxia compared with hypoxia [3]: approximately twice that under hypoxia

Structure (SMILES): Nc1ccn([C@@H]2O[C@H](CO)[C@@H](O)C2(F)F)c(=O)n1 [Gemcitabine, gemcitabine]
- IC50 (PCI-43 cells [1]; [4]): 1.56 µM
- IC50 (PCI-43 cells [1]; [5]): 0.272 µM
